Data on 15 compounds can be found in PubChem BioAssay AID1259408 (Genetic Toxicology Data Bank (GENE-TOX), 2018).

The source made the active and inactive calls. The rule behind the calls is not given here.

For the data set, the system named is GENE-TOX genotoxicity assays, various organisms and cells. Briefly: GENE-TOX mutagenicity studies. The following applies: for call: Assay Type: In vivo carcinogenicity studies.
Where [1] appears, read: Species/Cell Type: Nonhuman, Assay Code: CCG+, Evaluation Type: Evaluation A (Pre-1980).
[2] abbreviates: Species/Cell Type: Salmonella typhimurium (one or more of the five standard strains: TA98, TA100, TA1535, TA1537, and TA1538), Assay Type: Histidine reverse gene mutation, Ames assay, Assay Code: SAL+*, Activation: With metabolic activation, Evaluation Type: Evaluation A (Pre-1980).
[3] abbreviates: Species/Cell Type: Salmonella typhimurium, Assay Type: Forward and reverse gene mutation, host-mediated assay, Assay Code: HMA+, Evaluation Type: Evaluation A (Pre-1980).
The mark [4] stands for this setting: Species/Cell Type: Bacillus subtilis (H17 vs M45T), Assay Type: Rec-assay, spot test, DNA effects (bacterial DNA repair), Assay Code: REXT, Evaluation Type: Evaluation A (Pre-1980).
[5] abbreviates: Species/Cell Type: Escherichia coli polA (W3119 vs P3478), Assay Type: Rec-assay, DNA effects (bacterial DNA repair), Assay Code: RE1+, Evaluation Type: Evaluation A (Pre-1980).
The mark [6] stands for this setting: Species/Cell Type: Salmonella typhimurium (one or more of the five standard strains: TA98, TA100, TA1535, TA1537, and TA1538), Assay Type: Histidine reverse gene mutation, Ames assay, Assay Code: SALT, Evaluation Type: Evaluation A (Pre-1980).
Where [7] appears, read: Species/Cell Type: Rodents, Sex: Male, Assay Type: Dominant lethal test, Assay Code: DLT-, Evaluation Type: Evaluation A (Pre-1980).

With `Nc1ccc2cc3ccccc3cc2c1`, the mutagenic call was “active; positive” (Species/Cell Type: Escherichia coli polA (W3110 vs P3478), Assay Type: Rec-assay, DNA effects (bacterial DNA repair), Assay Code: RE2+, Evaluation Type: Evaluation A (Pre-1980)); “no conclusion” (Species/Cell Type: Escherichia coli polA (W3119 vs P3478), Assay Type: Rec-assay, DNA effects (bacterial DNA repair), Assay Code: RE1T, Evaluation Type: Evaluation A (Pre-1980)); “inactive; negative” (Species/Cell Type: Mouse (BALB/c-3T3) cells, Assay Type: Cell transformation, Assay Code: CTB-, Evaluation Type: Evaluation A (Pre-1980)); “active; positive” (Species/Cell Type: Mouse embryo (AKR/ME) cells, Assay Type: Cell transformation, Assay Code: CTK+, Evaluation Type: Evaluation A (Pre-1980)); “active; positive” (Species/Cell Type: Nonhuman, Assay Type: Sister-chromatid exchange (SCE) in vitro, Assay Code: SC2+, Evaluation Type: Evaluation B (Post-1980)); “active; positive” (Species/Cell Type: Nonhuman, Assay Type: Sister-chromatid exchange (SCE) in vivo, Assay Code: SC3+D, Dose Response: With dose response, Evaluation Type: Evaluation B (Post-1980)). The mutagenic call is “inactive; negative” (Species/Cell Type: Saccharomyces cerevisiae, Assay Type: Mitotic recombination or gene conversion, Assay Code: YEH-, Evaluation Type: Evaluation A (Pre-1980)); “active; positive” under setting [2]; “active; positive” under setting [3]; “active; positive” (Species/Cell Type: Syrian hamster embryo (SHE) cells, Assay Type: Cell transformation, clonal assay, Assay Code: CTC+, Evaluation Type: Evaluation A (Pre-1980)). Moreover, the call under setting [1] was “active; positive”.

As for `CCCCN(CC(=O)CC)N=O`, the mutagenic call under setting [2] is “active; positive”.

On to `OC[C@@H](O)C(O)[C@@H](O)CO` (stereo partly drawn), for which the mutagenic call (Species/Cell Type: Human, Assay Type: Sister-chromatid exchange (SCE) in vitro, Assay Code: SC1-, Evaluation Type: Evaluation B (Post-1980)) was “inactive; negative”; the mutagenic call (Species/Cell Type: Salmonella typhimurium, Assay Type: Forward and reverse gene mutation, body fluid assay, Assay Code: BFU-, Evaluation Type: Evaluation A (Pre-1980)) was “inactive; negative”; the mutagenic call (Species/Cell Type: Salmonella typhimurium, Assay Type: Forward and reverse gene mutation, host-mediated assay, Assay Code: HMA-, Evaluation Type: Evaluation A (Pre-1980)) was “inactive; negative”.

With `Cc1c2cccc(F)c2c(C)c2c1ccc1ccccc12`, where the note is “Species/Cell Type: Chinese hamster lung (V79) cells, Assay Type: Forward gene mutation at the HPRT or ouabain locus, Assay Code: V79+, Evaluation Type: Evaluation A (Pre-1980)”, the mutagenic call was “active; positive”.

Regarding `CCCCCCC(=O)N(C)N=O`, the mutagenic call (Species/Cell Type: Saccharomyces cerevisiae, Assay Type: Reverse gene mutation, Assay Code: YER+, Evaluation Type: Evaluation A (Pre-1980)) was “active; positive”.

In the case of `CN(C)c1ccc2cc3ccc(N(C)C)cc3nc2c1`, the mutagenic call by setting is: (Species/Cell Type: Allium cepa, Assay Type: Chromosome aberrations, Assay Code: ALC+D, Dose Response: With dose response, Evaluation Type: Evaluation A (Pre-1980)) “active; positive”; under setting [4], “no conclusion”; (Species/Cell Type: Chinese hamster ovary (CHO) cells, Assay Type: Forward gene mutation at the HPRT locus, Assay Code: CHO+, Evaluation Type: Evaluation B (Post-1980)) “active; positive”; (Species/Cell Type: Drosophila melanogaster, Assay Type: Sex-linked recessive lethal gene mutation, Assay Code: SRLT, Evaluation Type: Evaluation A (Pre-1980)) “no conclusion”; under setting [5], “active; positive”; (Species/Cell Type: Human lymphocytes, Assay Type: Sister-chromatid exchange (SCE) in vitro, Assay Code: SCL+, Evaluation Type: Evaluation B (Post-1980)) “active; positive”. For the same compound, the mutagenic call is “active; positive” (Species/Cell Type: Human, Assay Type: Sister-chromatid exchange (SCE) in vitro, Assay Code: SC1+, Evaluation Type: Evaluation B (Post-1980)); “active; positive” (Species/Cell Type: Mammalian polychromatic erythrocytes, Assay Type: Micronucleus test, chromosome aberrations, Assay Code: MNT+, Evaluation Type: Evaluation B (Post-1980)); “active; positive” (Species/Cell Type: Mouse, Sex: Female, Assay Type: Spot test, gene mutation, Assay Code: MST+, Evaluation Type: Evaluation A (Pre-1980)); “active; positive” (Species/Cell Type: Nonhuman, Assay Type: Sister-chromatid exchange (SCE) in vitro, Assay Code: SC2+D, Dose Response: With dose response, Evaluation Type: Evaluation A (Pre-1980)); “no conclusion” (Species/Cell Type: Saccharomyces cerevisiae, Assay Type: Forward gene mutation, Assay Code: YEFT, Evaluation Type: Evaluation A (Pre-1980)); “active; positive” (Species/Cell Type: Saccharomyces cerevisiae, Assay Type: Mitotic recombination or gene conversion, Assay Code: YEC+, Evaluation Type: Evaluation A (Pre-1980)). Also, the mutagenic call reads like this: (Species/Cell Type: Saccharomyces cerevisiae, Assay Type: Mitotic recombination or gene conversion, Assay Code: YEH+, Evaluation Type: Evaluation A (Pre-1980)) “active; positive”; under setting [2], “active; positive”; under setting [3], “active; positive”; (Species/Cell Type: Syrian hamster embryo (SA7/SHE) cells, Assay Type: Cell transformation, viral enhanced, Assay Code: CT7+, Evaluation Type: Evaluation A (Pre-1980)) “active; positive”; (Species/Cell Type: Syrian hamster embryo (SHE) cells, Assay Type: Cell transformation, clonal assay, Assay Code: CTCT, Evaluation Type: Evaluation A (Pre-1980)) “no conclusion”. Further, where the note is “Species/Cell Type: Nonhuman, Assay Code: CCGT, Evaluation Type: Evaluation A (Pre-1980)”, the call is listed as “no conclusion”.

Regarding `CNC(=O)Oc1cc(C)c(N(C)C)c(C)c1`, the call (Species/Cell Type: Nonhuman, Assay Code: CCG-L, Evaluation Type: Evaluation A (Pre-1980)) is “inactive; negative”.

Regarding `OO`, the mutagenic call was “active; positive” under setting [5]; “active; positive” (Species/Cell Type: Human diploid fibroblasts, Assay Type: Unscheduled DNA synthesis (UDS) in vitro, DNA effects, Assay Code: UDH+, Evaluation Type: Evaluation A (Pre-1980)); “active; positive” (Species/Cell Type: Human lymphocytes, Assay Type: Sister-chromatid exchange (SCE) in vitro, Assay Code: SCL+D, Dose Response: With dose response, Evaluation Type: Evaluation B (Post-1980)); “active; positive” (Species/Cell Type: Human, Assay Type: Sister-chromatid exchange (SCE) in vitro, Assay Code: SC1+D, Dose Response: With dose response, Evaluation Type: Evaluation B (Post-1980)); “active; positive” (Species/Cell Type: Neurospora crassa, Assay Type: Reverse gene mutation, Assay Code: NER+, Evaluation Type: Evaluation A (Pre-1980)); “active; positive” (Species/Cell Type: Nonhuman, Assay Type: Sister-chromatid exchange (SCE) in vitro, Assay Code: SC2+D, Dose Response: With dose response, Evaluation Type: Evaluation B (Post-1980)). Also, the mutagenic call is “no conclusion” under setting [6]; “active; positive” (Species/Cell Type: Schizosaccharomyces pombe, Assay Type: Reverse gene mutation, Assay Code: YEZ+, Evaluation Type: Evaluation A (Pre-1980)); “inactive; negative” (Species/Cell Type: Vicia faba, Assay Type: Chromosome aberrations, Assay Code: VIC-, Evaluation Type: Evaluation A (Pre-1980)).

For `O=C(COc1ccc(Br)cc1CN1CCCCC1)N/N=C/c1ccccc1O`, the mutagenic call (Species/Cell Type: Saccharomyces cerevisiae, Assay Type: Reverse gene mutation, Assay Code: YERT, Evaluation Type: Evaluation A (Pre-1980)) was “no conclusion”.

On to `CC(=O)OC[C@H]1O[C@@H](Oc2ccc3c(c2O)C(=O)c2ccccc2C3=O)[C@H](OC(C)=O)[C@@H](OC(C)=O)[C@@H]1OC(C)=O`, for which the mutagenic call under setting [6] is given as “no conclusion”.

For `O=S(=O)(O)c1ccc2c(N=Nc3ccc(S(=O)(=O)O)c4ccccc34)c(O)c(S(=O)(=O)O)cc2c1`, the mutagenic call reads like this: (Species/Cell Type: Bacillus subtilis (H17 vs M45), Assay Type: Rec-assay, spot test, DNA effects (bacterial DNA repair), Assay Code: REWT, Evaluation Type: Evaluation A (Pre-1980)) “no conclusion”; under setting [4], “no conclusion”; under setting [7], “inactive; negative”; (Species/Cell Type: Saccharomyces cerevisiae, Assay Type: Mitotic recombination or gene conversion, Assay Code: YEC-, Evaluation Type: Evaluation A (Pre-1980)) “inactive; negative”; (Species/Cell Type: Salmonella typhimurium (one or more of the five standard strains: TA98, TA100, TA1535, TA1537, and TA1538), Assay Type: Histidine reverse gene mutation, Ames assay, Assay Code: SAL-, Evaluation Type: Evaluation A (Pre-1980)) “inactive; negative”; (Species/Cell Type: Syrian hamster embryo (SA7/SHE) cells, Assay Type: Cell transformation, viral enhanced, Assay Code: CT7-, Evaluation Type: Evaluation A (Pre-1980)) “inactive; negative”.

Regarding `CN(C)CC/C=C1\c2ccccc2CSc2ccccc21`, the mutagenic call under setting [7] was “inactive; negative”.

As to `c1ccc2c(c1)CCc1cc3ccc4c(c3cc1-2)CCCC4`, under setting [2], the mutagenic call was “active; positive”.

`CN(C)/C=N/c1nnc(/C=C/c2ccc([N+](=O)[O-])o2)o1`: under setting [1], the call is “active; positive”. Further, the mutagenic call (Species/Cell Type: Salmonella typhimurium (one or more of the five standard strains: TA98, TA100, TA1535, TA1537, and TA1538), Assay Type: Histidine reverse gene mutation, Ames assay, Assay Code: SAL+, Evaluation Type: Evaluation A (Pre-1980)) was “active; positive”.

Turning to `CC(C)(O)C(Cl)(Cl)Cl`, the mutagenic call (Species/Cell Type: Mammalian polychromatic erythrocytes, Assay Type: Micronucleus test, chromosome aberrations, Assay Code: MNTT, Evaluation Type: Evaluation B (Post-1980)) is “no conclusion”.
